# pIC50: −log10 of the molar value.
# Key:
# [1] = mouse, in vivo
# Description: (§1) The solubility, maximum tolerated dose, and pharmacokinetics of the phyllanthusmins, facilitating the in vivo studies with PHY-34, were also determined. The solubility of the compounds were assessed in DMSO, PEG300, HPβCD, and PBS. The stability of PHY-34 was assessed in a formulation comprising PEG300 and saline at a 1:1 volume ratio. The solution was prepared at a concentration of 7 mg/ml. A plate reader-based absorbance assay or LC-MS/MS was used. Table 4 summarizes the solubility measurements. FIG. 5 and Table 5 summarize the stability measurements. FIGS. 6A and 6B show the concentration-time profile of PHY-34 in mouse plasma via different administration routes
# [2] = Solubility, plate reader-based absorbance assay; type: physicochemical
# Source text: A series of compounds were synthesized to improve their water solubility. In particular, phyllanthusmin derivatives including an arabinose derivative with a free C2 hydroxy group, have been explored to produce phosphate, succinate, and amino acid conjugates. In addition PHY-25 and PHY-30 have also been synthesized to contain similar alcohol functionality that can ultimately be utilized to improve water solubility. PHY-28 and PHY-29 containing a glucosamine moiety were also synthesized for improved water solubility. The water solubility of these and other PHY derivatives was assessed (Table 2) to establish a baseline of solubility in a series of 4 solutions. This was accomplished using a plate reader-based absorbance assay.
# as §1
# [3] = test system: OVCAR8 ovarian cancer cell line; assay: IC50 in ovarian cancer cell line OVCAR8; type: cell-based; conditions: OVCAR8
# Description: (§2) The compounds shown in FIG. 2 were tested against two different ovarian cancer cell lines (xenograft mouse model OVCAR3 and OVCAR8 ovarian cancer cell lines). […] A summary of the test data is shown in FIGS. 3A, 3B, and 4 and Table 3. A comparison of the IC50 values of the compounds in FIG. 2 in two of the ovarian cancer cell lines (OVCAR3 and OVCAR8) reveal subtle differences in activity.
# HT-29 cells = assay: Cytotoxicity / antiproliferative activity against HT-29 cells; type: cell-based; conditions: in vitro
# Source text: The cytotoxicity of the compounds in FIG. 1 was screened against HT-29 cells by a previously reported procedure (Ren Y et al. J. Nat. Prod 2011, 74, 1117-1125). A summary of the results is described in Table 1.
# Hollow fiber assay = assay: Hollow fiber assay; set-up: species or system mice; conditions: mouse
# Description: Hollow fiber assay, IVIS imaging, tubulin inhibition, autophagy, and tumor burden were determined in mice exposed to various arylnaphthalene ligans.
# [4] = test system: OVCAR3 ovarian cancer cell line; assay: IC50 in ovarian cancer cell line OVCAR3; type: cell-based; conditions: OVCAR3
# Description: as §2
# mice = assay: Toxicity and maximum tolerated dose in mice by IV, IP or PO route; type: in vivo; conditions: for MTD (maximum tolerated dose) / Toxicity (survival): mice
# Description: To determine toxicity, PHY-34 was administered to mice by the bolus intravenous (IV), bolus intraperitoneal (IP), or oral (PO) route to the assigned animals.
# [5] = Stability of PHY-34 in PEG300/saline formulation; type: physicochemical; conditions: for Stability of PHY-34 / Stability of PHY-34, second value column: PEG300:saline 1:1, 7 mg/ml
# Description: as §1
# [6] = test system: numerous other cell lines; assay: In vitro activity in numerous other cell lines; type: cell-based
smiles,measurement,setting,value
COc1cc2c(OC3OC(CO)C4OC(C)(C)OC4C3O)c3c(c(-c4ccc5c(c4)OCO5)c2cc1OC)C(=O)OC3 (centres unmarked) [PHY-34],AUC on oral dosing (in words),[1],reasonable AUCs
same,Solubility in 30% HPβCD,[2],1.7 mg/mL
same,Solubility in DMSO,[2],114.4 mg/mL
same,Solubility in PBS,[2],0.03 mg/mL
same,Solubility in PEG300,[2],27.6 mg/mL
same,pIC50,[3],8.39
same,potency in ovarian cancer cell lines (in words),[3],highest potency
same,activity against HT-29 cells (in words),HT-29 cells,sub-nanomolar
same,efficacy in vivo in hollow fiber assay (in words),Hollow fiber assay,demonstrated efficacy
same,pIC50,[4],8.40
same,potency in ovarian cancer cell lines (in words),[4],highest potency
same,MTD (maximum tolerated dose),mice; IP,1.8 mpk
same,Toxicity (survival),"mice; IP, 0.6 mpk",all 3 alive
same,Toxicity (survival),"mice; IP, 1.8 mpk",all 5 alive
same,Toxicity (survival),"mice; IP, 3 mpk, within 0.5",all 3 died within 0.5
same,Toxicity (survival),"mice; IP, 6 mpk, within 0.5 hour",all 5 died within 0.5
same,MTD (maximum tolerated dose),mice; IV,0.6 mpk
same,Toxicity (survival),"mice; IV, 0.3 mpk",all 5 alive
same,Toxicity (survival),"mice; IV, 0.6 mpk",all 5 alive
same,Toxicity (survival),"mice; IV, 1 mpk, within 0.5 hour",1 out of 5 died within
same,Toxicity (survival),"mice; IV, 3 mpk, within 5 minutes",all 5 died within 5
same,MTD (maximum tolerated dose),mice; PO,>30 mpk
same,Toxicity (survival),"mice; PO, 30 mpk",all 5 alive
same,toxicity on oral dosing (in words),"mice; oral dosing, up to 30 mpk",no toxicity
same,Stability of PHY-34,"[5]; 4° C., 1 week",86
same,Stability of PHY-34,"[5]; 4° C., 1 day",95
same,"Stability of PHY-34, second value column","[5]; 4° C., 1 day",77
same,Stability of PHY-34,"[5]; RT, 0 hr",100
same,"Stability of PHY-34, second value column","[5]; RT, 0 hr",100
same,Stability of PHY-34,"[5]; RT, 6 hr",87
same,"Stability of PHY-34, second value column","[5]; RT, 6 hr",82
same,Stability of PHY-34,"[5]; −20° C., 1 week",87
same,"Stability of PHY-34, second value column","[5]; −20° C., 1 week",77
same,Stability of PHY-34,"[5]; −20° C., 1 day",90
same,"Stability of PHY-34, second value column","[5]; −20° C., 1 day",82
same,Stability of PHY-34,"[5]; −80° C., 1 week",86
same,"Stability of PHY-34, second value column","[5]; −80° C., 1 week",81
same,Stability of PHY-34,"[5]; −80° C., 1 day",93
same,"Stability of PHY-34, second value column","[5]; −80° C., 1 day",80
same,stability of PHY-34 solution upon storage (in words),[5]; storage for one week at 4° C. to −80° C.,stable (no significant degradation)
same,activity in numerous other cell lines (in words),[6],single digit nanomolar

# Reference: US10682367B2, “Antitumor arylnaphthalene ligand glycosides” (OHIO STATE INNOVATION FOUNDATION, priority 2016, dated 2020)
